# How the values were obtained:
# [1] = test system: WT and ΔCrtM S. aureus in human neutrophils; conditions: FIG. 2d
# Protocol: Neutrophils were purified from healthy human volunteers using a Histopaque gradient (Sigma) per manufacturer's directions. Intracellular survival assays were performed as follows. Bacterial cultures were washed twice in PBS, diluted to a concentration of 4.5×10^6 cfu in 100 μl RPMI+10% FCS, and mixed with 3×10^5 neutrophils in the same media (multiplicity of infection, MOI=15:1), centrifuged at 700×g for 5 min, then incubated at 37° C. in a 5% CO2 incubator. Gentamicin (Gibco) (final concentration 400 μg/ml for S. aureus and 100 μg/ml for S. pyogenes) was added after 10 min to kill extracellular bacteria. At specified time points, the contents of sample wells were withdrawn, centrifuged to pellet the neutrophils, and washed to remove the antibiotic medium. Neutrophils were then lysed in 0.02% triton-X, and cfu calculated by plating on THA. Several assays were repeated with addition of a step involving preincubation of the bacterial inoculum with 10% autologous human serum for 15 min on ice.
# [2] = test system: WT and ΔCrtM S. aureus in mouse blood; conditions: FIG. 6c
# Protocol: Bacteria were washed twice in PBS, diluted to an inoculum of 10^4 cfu in 25 μl PBS, and mixed with 75 μl of freshly drawn human or mouse blood in heparinized tubes. The tubes were incubated at 37° C. for 4 h with agitation, at which time dilutions were plated on THA for enumeration of surviving cfu.
# WT and ΔCrtM S. aureus = experiment: Protease and cathelicidin sensitivity assays; format: cell-based, Staphylococcus aureus; conditions: WT vs ΔCrtM S. aureus, 2 h at 37° C., FIG. 6d, e
# Protocol: Human neutrophil elastase, and cathepsin G were purchased from Calbiochem. The antimicrobial peptide mCRAMP was synthesized at the Louisiana State University Protein Facility (Martha Juban, Director). S. aureus cultures were diluted (1:2,000) in 10 mM phosphate buffer (pH 7.2)+0.5% LB to 1×10^6 CFU/ml. Ninety μl of this bacterial suspension was added to replicate wells in a 96-well plate. Dilutions of the cathepsin G (20 and 100 mU/ml), human neutrophil elastase (12.5 and 50 μg/ml), and murine CRAMP (0.4-3 μM) were prepared in 10 mM phosphate buffer and added to wells in 10 μl volume; 10 mM phosphate buffer alone was used as a negative control. After 2 h incubation at 37° C., 25 μl aliquots of each well were serially diluted in PBS and plated on THB. Each experiment was performed in duplicate and repeated.
# WT strain of S. aureus [3] = experiment: Pigment production of S. aureus grown in the presence of the agent; format: cell-based, Staphylococcus aureus; conditions: FIG. 4a
# Protocol: (§1) Wild-type and ΔCrtM mutant S. aureus were cultured in the presence or absence of SKF 525-A at the indicated concentrations. Depicted are the observed effects on A) pigmentation phenotype, B) singlet oxygen susceptibility, and C) survival in murine whole blood. Results shown are representative of at least three experiments.
# Wild-type S. aureus strain (Pig1), isolated from the skin of a child with atopic dermatitis. Streptococcus pyogenes strain 5448 is a well-characterized serotype M1T1 clinical isolate^18. CD1 and C57Bl/6 mice were purchased from Charles River. The gp91^Phox−/− mice were bred at the Veteran's Administration Medical Center, San Diego and maintained on trimethoprim/sulfamethoxazole prophylaxis until 3 d prior to experiments. S. aureus and S. pyogenes were propagated in Todd-Hewitt broth (THB) or on THB agar (Difco, Detroit, Mich.). Unless otherwise indicated, all experiments were performed with bacteria derived from S. aureus 36-48 h stationary phase cultures or S. pyogenes 24 h stationary phase cultures, a point when pigmentation phenotypes were readily apparent.
# Stationary phase (48 h) cultures of WT S. aureus Pig1 and its isogenic ΔCrtM mutant were subjected to methanol extraction. The absorbance profile of the extracts was measured with a MBA 2000 spectrophotometer (Perkin Elmer). […]
# WT S. aureus [4] = experiment: Singlet oxygen susceptibility assay (methylene blue and light), WT strain; format: cell-based, Staphylococcus aureus; conditions: WT S. aureus cultured with SKF 525-A, FIG. 4b
# Protocol: as §1
# (§2) Tests for susceptibility to oxidants were performed either in PBS (S. aureus) or THB (S. pyogenes). Hydrogen peroxide (H2O2) was added to 1.5% final concentration, […] bacteria incubated at 37° C. for 1 h, then 1,000 U/ml of catalase (Sigma) added to quench residual H2O2. […] For the singlet oxygen assay, 10^8 S. aureus or 4×10^8 S. pyogenes were incubated at 37° C. in individual wells of a 24-well culture plate in the presence or absence of 1-6 μg/ml methylene blue and situated exactly 10 cm from a 100-watt light source. Bacterial viability was assessed after 1-3 h by plating dilutions on THA.
# (§3) Given the protective effect provided to the bacteria by the golden yellow pigments, a pharmacologic agent that inhibits carotenogenesis might render S. aureus more susceptible to immune clearance.
# ΔCrtM mutant S. aureus [5] = experiment: Singlet oxygen susceptibility assay (methylene blue and light), ΔCrtM mutant control; format: cell-based, Staphylococcus aureus; conditions: ΔCrtM mutant exposed to SKF 525-A, FIG. 4b
# Protocol: as §1, §2, §3
# WT S. aureus [6] = experiment: Whole blood killing assay, WT strain; format: cell-based, Staphylococcus aureus; conditions: WT S. aureus cultured with SKF 525-A, FIG. 4c
# Protocol: Wild-type and ΔCrtM mutant S. aureus were cultured in the presence or absence of SKF 525-A at the indicated concentrations. […] Results shown are representative of at least three experiments.
# as §3
# ΔCrtM mutant S. aureus [7] = experiment: Whole blood killing assay, ΔCrtM mutant control; format: cell-based, Staphylococcus aureus; conditions: ΔCrtM mutant exposed to SKF 525-A, FIG. 4c
# Protocol: as §1, §3
# WT strain of S. aureus [8] = conditions: earlier report; moderate residual accumulation of δ carotenoid intermediate noted; cited from earlier work
molecule,measurement,setting,value
"c1ccc2c(c1)[I+]c1ccccc1-2 [DPI, diphenyleneiodonium]",survival of WT and ΔCrtM S. aureus in human neutrophils when oxidative burst inhibited,[1],survived equally well
same,survival of WT and ΔCrtM S. aureus in mouse blood when oxidative burst inhibited,[2],survived equally well
"mCRAMP: murine cathelicidin antimicrobial peptide, synthesized at Louisiana State University Protein Facility (ISRLAGLLRKGGEKIGEKLKKIGQKIKNFFQKLVPQPE; Cathelin-related antimicrobial peptide; UniProt P51437 135-172, looked up)",susceptibility of S. aureus to antimicrobial action,WT and ΔCrtM S. aureus,equally susceptible
"CCCC(C(=O)OCCN(CC)CC)(c1ccccc1)c1ccccc1 [SKF 525-A, 2-diethylaminoethyl-2,2-diphenyl-valerate]",pigment production,WT strain of S. aureus [3],dose-dependent decrease
same,susceptibility to singlet oxygen killing,WT S. aureus [4],dose-dependent increase
same,effect on oxidant susceptibility,ΔCrtM mutant S. aureus [5],no significant effects
same,ability to survive in human whole blood,WT S. aureus [6],decrease
same,effect on blood survival,ΔCrtM mutant S. aureus [7],no significant effects
same,pigment formation in S. aureus (previously shown),WT strain of S. aureus [8],inhibit pigment formation
cathepsin G: granule protease purchased from Calbiochem,susceptibility of S. aureus to antimicrobial action,WT and ΔCrtM S. aureus,no difference
human neutrophil elastase: granule protease purchased from Calbiochem,susceptibility of S. aureus to antimicrobial action,WT and ΔCrtM S. aureus,resistant

# Source: patent publication US8507551B2, “Antimicrobial therapy for bacterial infections” (priority 2005, dated 2013)
